Several values for one entry are separate records, joined by “and”; a condition that tells them apart may be missing. Identical values can stand only once. Toxic doses and inconclusive results are not listed.
Tested on: L1210 leukemia ip in BDF1 mice, survival T/C
Experiment: NCI In Vivo Anticancer Drug Screen. Data for tumor model L1210 Leukemia (intraperitoneal) in B6D2F1 (BDF1) mice
Details: higher = longer survival
Outline: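 Value reflects the ratio of survival in compound-treated mice to survival in vehicle-treated controls, with both groups carrying the same transplanted tumor.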

[1] = endpoint: mean survival time, dose: 100.0 mg/kg/injection, schedule: Q01DX009 (ip), vehicle: Klucel (hydroxypropylcellulose) (HPC)
[2] = endpoint: mean survival time, dose: 100.0 mg/kg/injection, schedule: Q04DX003 (ip), vehicle: Klucel (hydroxypropylcellulose) (HPC)
[3] = endpoint: mean survival time, dose: 200.0 mg/kg/injection, schedule: Q01DX009 (ip), vehicle: Klucel (hydroxypropylcellulose) (HPC)
[4] = endpoint: mean survival time, dose: 200.0 mg/kg/injection, schedule: Q04DX003 (ip), vehicle: Klucel (hydroxypropylcellulose) (HPC)
[5] = endpoint: mean survival time, dose: 400.0 mg/kg/injection, schedule: Q01DX009 (ip), vehicle: Klucel (hydroxypropylcellulose) (HPC)
[6] = endpoint: mean survival time, dose: 400.0 mg/kg/injection, schedule: Q04DX003 (ip), vehicle: Klucel (hydroxypropylcellulose) (HPC)
[7] = endpoint: mean survival time, dose: 50.0 mg/kg/injection, schedule: Q01DX009 (ip), vehicle: Klucel (hydroxypropylcellulose) (HPC)
[8] = endpoint: mean survival time, dose: 100.0 mg/kg/injection, schedule: Q01DX001 (ip), vehicle: Klucel (hydroxypropylcellulose) (HPC)
[9] = endpoint: mean survival time, dose: 200.0 mg/kg/injection, schedule: Q01DX001 (ip), vehicle: Klucel (hydroxypropylcellulose) (HPC)
[10] = endpoint: mean survival time, dose: 50.0 mg/kg/injection, schedule: Q01DX001 (ip), vehicle: saline
[11] = endpoint: mean survival time, dose: 100.0 mg/kg/injection, schedule: Q01DX001 (ip), vehicle: saline
[12] = endpoint: mean survival time, dose: 200.0 mg/kg/injection, schedule: Q01DX001 (ip), vehicle: saline

O=C(Nc1ccccc1)Nc1ccc(Cl)c(Cl)c1
T/C (endpoint: mean survival time, dose: 100.0 mg/kg/injection, schedule: Q01DX001 (ip), vehicle: saline with Tween-80): 95 % of control | T/C [1]: 101 % of control | T/C [2]: 107 % of control | T/C (endpoint: mean survival time, dose: 200.0 mg/kg/injection, schedule: Q01DX001 (ip), vehicle: saline with Tween-80): 97 % of control | T/C [3]: 94 % of control | T/C [4]: 89 % of control | T/C (endpoint: mean survival time, dose: 400.0 mg/kg/injection, schedule: Q01DX001 (ip), vehicle: saline with Tween-80): 90 % of control | T/C [5]: 95 % of control | T/C [6]: 86 % of control

O=C(O)c1c(Cl)c(Cl)c(Cl)c(C(=O)O)c1Cl
T/C [7]: 98 % of control | T/C [1]: 97 % of control | T/C [2]: 93 % of control | T/C [3]: 98 % of control | T/C [4]: 91 % of control

C[C@]12CC[C@@H]3c4ccc(O)cc4CC[C@H]3[C@@H]1C[C@@H](O)[C@@H]2O
T/C (endpoint: mean survival time, dose: 25.0 mg/kg/injection, schedule: Q01DX001 (sc), vehicle: steriod suspending solution): 104 % of control | T/C (endpoint: mean survival time, dose: 50.0 mg/kg/injection, schedule: Q01DX001 (sc), vehicle: steriod suspending solution): 107 % of control | T/C (endpoint: mean survival time, dose: 100.0 mg/kg/injection, schedule: Q01DX001 (sc), vehicle: steriod suspending solution): 109 % of control | T/C (endpoint: mean survival time, dose: 125.0 mg/kg/injection, schedule: Q04DX003 (sc), vehicle: steriod suspending solution): 100 % of control | T/C (endpoint: mean survival time, dose: 200.0 mg/kg/injection, schedule: Q01DX001 (sc), vehicle: steriod suspending solution): 106 % of control | T/C (endpoint: mean survival time, dose: 250.0 mg/kg/injection, schedule: Q04DX003 (sc), vehicle: steriod suspending solution): 105 % of control | T/C (endpoint: mean survival time, dose: 500.0 mg/kg/injection, schedule: Q04DX003 (sc), vehicle: steriod suspending solution): 100 % of control

Cc1ccc2c(ccc3cc(C)ccc32)c1
T/C (endpoint: mean survival time, dose: 100.0 mg/kg/injection, schedule: Q04DX002 (ip), vehicle: Klucel (hydroxypropylcellulose) (HPC)): 122 % of control | T/C (endpoint: mean survival time, dose: 200.0 mg/kg/injection, schedule: Q04DX002 (ip), vehicle: Klucel (hydroxypropylcellulose) (HPC)): 101 % of control | T/C (endpoint: mean survival time, dose: 400.0 mg/kg/injection, schedule: Q04DX002 (ip), vehicle: Klucel (hydroxypropylcellulose) (HPC)): 97 % of control

O=c1[nH]c2ccc(Cl)cc2c2nc3ccccc3n12
T/C [7]: 107 % of control | T/C [1]: 101 % of control | T/C [3]: 92 % of control

CN1C(=O)N(Br)C(C)(C)C1=O
T/C [7]: 95 % of control | T/C (endpoint: mean survival time, dose: 50.0 mg/kg/injection, schedule: Q04DX003 (ip), vehicle: Klucel (hydroxypropylcellulose) (HPC)): 106 % of control | T/C [8]: 92 % of control | T/C [1]: 98 % of control | T/C [2]: 100 % of control | T/C [9]: 102 % of control | T/C [4]: 97 % of control

COc1cccc2c1C(=O)c1c(O)c3c(c(O)c1C2=O)CC(O)(C(=O)CO)CC3OC1CC(N)C(O)C(C)O1 (stereo unspecified)
T/C (endpoint: mean survival time, dose: 0.5 mg/kg/injection, schedule: Q01DX008 (ip), vehicle: saline): 151 % of control | T/C (endpoint: mean survival time, dose: 1.0 mg/kg/injection, schedule: Q01DX008 (ip), vehicle: saline): 158 % of control | T/C (endpoint: mean survival time, dose: 2.0 mg/kg/injection, schedule: Q01DX008 (ip), vehicle: saline): 209 % of control | T/C (endpoint: mean survival time, dose: 4.0 mg/kg/injection, schedule: Q01DX008 (ip), vehicle: saline): 98 % of control | T/C (endpoint: median survival time, dose: 4.0 mg/kg/injection, schedule: Q01DX005 (ip), vehicle: water): 121 % of control | T/C (endpoint: median survival time, dose: 6.0 mg/kg/injection, schedule: Q01DX005 (ip), vehicle: other): 115 % of control | T/C (endpoint: median survival time, dose: 11.0 mg/kg/injection, schedule: Q01DX005 (ip), vehicle: other): 123 % of control | T/C (endpoint: median survival time, dose: 11.0 mg/kg/injection, schedule: Q01DX005 (ip), vehicle: water): 177 % of control | T/C (endpoint: median survival time, dose: 11.0 mg/kg/injection, schedule: Q04DX003 (ip), vehicle: water): 115 % of control | T/C (endpoint: median survival time, dose: 16.0 mg/kg/injection, schedule: Q01DX005 (ip), vehicle: other): 123 % of control | T/C (endpoint: median survival time, dose: 19.0 mg/kg/injection, schedule: Q01DX005 (ip), vehicle: water): 177 % of control | T/C (endpoint: median survival time, dose: 31.0 mg/kg/injection, schedule: Q01DX005 (ip), vehicle: water): 155 % of control | T/C (endpoint: median survival time, dose: 31.0 mg/kg/injection, schedule: Q04DX003 (ip), vehicle: water): 121 % of control | T/C (endpoint: median survival time, dose: 51.6 mg/kg/injection, schedule: Q01DX005 (ip), vehicle: water): 152 % of control | T/C (endpoint: median survival time, dose: 52.0 mg/kg/injection, schedule: Q04DX003 (ip), vehicle: water): 194 % of control | T/C (endpoint: median survival time, dose: 87.0 mg/kg/injection, schedule: Q04DX003 (ip), vehicle: water): 157 % of control and 172 % of control | T/C (endpoint: median survival time, dose: 145.0 mg/kg/injection, schedule: Q04DX003 (ip), vehicle: water): 110 % of control | T/C (endpoint: median survival time, dose: 242.0 mg/kg/injection, schedule: Q04DX003 (ip), vehicle: water): 89 % of control

O=C(O)c1ccccc1C(c1ccccc1)c1ccccc1
T/C (endpoint: mean survival time, dose: 100.0 mg/kg/injection, schedule: Q04DX003 (ip), vehicle: saline with Tween-80): 98 % of control | T/C (endpoint: mean survival time, dose: 200.0 mg/kg/injection, schedule: Q04DX003 (ip), vehicle: saline with Tween-80): 93 % of control | T/C (endpoint: mean survival time, dose: 400.0 mg/kg/injection, schedule: Q04DX003 (ip), vehicle: saline with Tween-80): 98 % of control

C1CCC(N2CC3CCCC2O3)CC1 (stereo unspecified)
T/C [10]: 101 % of control | T/C [11]: 97 % of control | T/C [12]: 95 % of control

CCN(CC)C(=O)N1CCN(C)CC1
T/C [1]: 101 % of control | T/C [2]: 94 % of control | T/C [3]: 106 % of control | T/C [4]: 98 % of control | T/C [5]: 104 % of control | T/C [6]: 96 % of control

Cc1cc[n+](Cc2ccccc2Cl)c(C)c1
T/C (endpoint: mean survival time, dose: 6.25 mg/kg/injection, schedule: Q01DX009 (ip), vehicle: saline): 105 % of control | T/C (endpoint: mean survival time, dose: 6.25 mg/kg/injection, schedule: Q04DX003 (ip), vehicle: saline): 96 % of control | T/C (endpoint: mean survival time, dose: 8.0 mg/kg/injection, schedule: Q01DX009 (ip), vehicle: saline): 99 % of control | T/C (endpoint: mean survival time, dose: 12.0 mg/kg/injection, schedule: Q01DX009 (ip), vehicle: saline): 96 % of control | T/C (endpoint: mean survival time, dose: 12.5 mg/kg/injection, schedule: Q04DX003 (ip), vehicle: saline): 102 % of control | T/C (endpoint: mean survival time, dose: 18.0 mg/kg/injection, schedule: Q01DX009 (ip), vehicle: saline): 105 % of control | T/C (endpoint: mean survival time, dose: 25.0 mg/kg/injection, schedule: Q01DX009 (ip), vehicle: saline): 113 % of control

COc1ccc(N2C(=O)OC3(CCN(CCCC(=O)c4cccs4)CC3)C2=O)cc1
T/C [8]: 88 % of control | T/C [9]: 92 % of control | T/C (endpoint: mean survival time, dose: 400.0 mg/kg/injection, schedule: Q01DX001 (ip), vehicle: Klucel (hydroxypropylcellulose) (HPC)): 100 % of control

CCOC(=O)c1ccc(NC(=O)c2cccc(F)c2)cc1
T/C (endpoint: mean survival time, dose: 100.0 mg/kg/injection, schedule: Q04DX002 (ip), vehicle: saline): 91 % of control | T/C (endpoint: mean survival time, dose: 200.0 mg/kg/injection, schedule: Q04DX002 (ip), vehicle: saline): 105 % of control | T/C (endpoint: mean survival time, dose: 400.0 mg/kg/injection, schedule: Q04DX002 (ip), vehicle: saline): 109 % of control

O=[N+]([O-])c1cccc(C=Nc2ccc(CCC3(CCl)OCCO3)cc2)c1
T/C (endpoint: mean survival time, dose: 100.0 mg/kg/injection, schedule: Q01DX001 (ip), vehicle: gum acacia): 96 % of control | T/C (endpoint: mean survival time, dose: 200.0 mg/kg/injection, schedule: Q01DX001 (ip), vehicle: gum acacia): 98 % of control | T/C (endpoint: mean survival time, dose: 400.0 mg/kg/injection, schedule: Q01DX001 (ip), vehicle: gum acacia): 98 % of control

CCC(C)(N)C(=O)O (stereo unspecified)
T/C [11]: 102 % of control | T/C [12]: 106 % of control | T/C (endpoint: mean survival time, dose: 400.0 mg/kg/injection, schedule: Q01DX001 (ip), vehicle: saline): 102 % of control

COc1ccc(OC)c2c(=O)cc(C(=O)O)[nH]c12
T/C [10]: 98 % of control | T/C [11]: 97 % of control | T/C [12]: 95 % of control
